Test results published in patent US20240262842A1, “SMALL MOLECULE INHIBITORS OF KRAS G12C MUTANT” (Merck Sharp & Dohme LLC, priority 2021, published 2024).
Read-outs that look alike come from different tables or passages of the source.

What was measured:
[1] = target: T1, interaction between GMPPNP-bound recombinant K-Ras4B G12C mutant protein and cRAF RAS-binding domain (cRAF-RBD) (Homo sapiens, UniProt P01116, G12C); test: Inhibitory activity on interaction between KRAS G12C and cRAF (Alpha technology)
T1 construct: His-tag (N)
T1 sequence (P01116 with tags, fused parts or gaps isoform P01116-2 G12C): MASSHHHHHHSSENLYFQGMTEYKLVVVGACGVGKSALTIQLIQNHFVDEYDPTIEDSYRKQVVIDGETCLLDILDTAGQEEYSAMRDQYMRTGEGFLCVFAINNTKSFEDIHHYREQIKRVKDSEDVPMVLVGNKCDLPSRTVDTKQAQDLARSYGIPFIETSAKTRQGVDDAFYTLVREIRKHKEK
How it was run: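 Alpha signal measured 1.5 h after adding cRAF-RBD (aa 50-132) and detection reagents to GMPPNP-bound KRAS G12C (aa 1-169) pretreated 1 h at 25° C with compound (pH 7.5 buffer). 0% inhibition = DMSO, 100% = GDP-loaded KRAS; IC50 by curve fit.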

MIA PaCa-2 cells = test: Growth inhibition activity on KRAS-G12C mutant cell line (CellTiter-Glo 3D); assay type: cell-based, human; details: MIA PaCa-2, 3-day culture with compound
How it was run: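 IC50 (nM) derived from inhibition of luminescence (CellTiter-Glo 3D) relative to compound-free wells. Cells were seeded in U-bottom plates, grown 1 day, then exposed to compound for 3 days at 37 °C with 0.2% final DMSO.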

[2] = GMPPNP-bound KRAS G12C incubated with compound 25° C. 1 hour, Table 2-1, read-out: IC50
[3] = Homo sapiens, MIA PaCa-2, 72 h, Table 3-1
[4] = GMPPNP-bound KRAS G12C incubated with compound 25° C. 1 hour, Table 2, read-out: IC50
[5] = Homo sapiens, MIA PaCa-2, 72 h, Table 3
[6] = IC50, GMPPNP-bound KRAS G12C incubated with compound 25° C. 1 hour, Table 2
[7] = IC50, GMPPNP-bound KRAS G12C incubated with compound 25° C. 1 hour, Table 2-1

SMILES	IC50 [1, 2]	IC50 (MIA PaCa-2 cells; [3])	further results
Cc1nnc2c3c(c(C(F)(F)F)cn12)-c1cccn2c(C(=O)c4cc(F)c(NC(=O)/C=C/CN[C@H]5CCOC5)c(F)c4)cc(c12)CCN3C [Example 217, (S,E)-N-(4-(10,13-dimethyl-7-(trifluoromethyl)-14,15-dihydro-13H-[1,2,4]triazolo[4″,3″:1′,2′]pyrido[3′,4′:2,3]azocino[4,5,6-hi]indolizine-2-carbonyl)-2,6-difluorophenyl)-4-((tetrahydrofuran-3-yl)amino)but-2-enamide]	19.7 nM	6.22 nM	–
COc1cc2c(nc(C)n2C)c2c1-c1cccn3c(C(=O)c4cc(F)c(NC(=O)/C=C/CNC(C)(C)CF)c(F)c4)cc(c13)CCN2C [Example 93]	33.6 nM	51.6 nM	–
Cc1nc2c3c(c(C(F)(F)F)cc2n1C)-c1cccn2c(C(=O)c4cc(F)c(NC(=O)/C=C/CNC5CCOCC5)c(F)c4)cc(c12)CCO3 [Example 34]	–	–	IC50 [1, 4]: 12 nM; IC50 (MIA PaCa-2 cells; [5]): 7 nM
Cc1cc2c(nc(C)n2C)c2c1-c1cccc3c(C(=O)c4cc(F)c(NC(=O)/C=C/CNC(C)(C)C)c(F)c4)cn(c13)CCO2 [Example 13, (E)-4-(tert-butylamino)-N-(2,6-difluoro-4-(6,8,9-trimethyl-12,13-dihydro-SH-imidazo[4″,5″:3′,4′]benzo[1′,2:7,8][1,4]oxazocino[6,5,4-hi]indole-2-carbonyl)phenyl)but-2-enamide]	–	–	IC50 [1, 6]: 17 nM; IC50 (MIA PaCa-2 cells; [5]): 59 nM
COCc1nc2c3c(c(OC)cc2n1C)-c1cccn2c(C(=O)c4cc(F)c(NC(=O)/C=C/CNC5(C)CC5)c(F)c4)nc(c12)CCN3C (single isomer, unassigned) [Example 181, (E)-N-(2,6-difluoro-4-(6-methoxy-9-(methoxy-methyl)-8,11-dimethyl-8,11,12,13-tetrahydro-1,2a,8,10,11-pentaaza-cycloocta[1,2,3-cd:5,4-e′]-diindene-2-carbonyl)phen-yl)-4-((1-methylcyclo-propyl)amino)but-2-en-amide]	48.1 nM	21 nM	–
CN1CCc2cc(C(=O)c3cc(F)c(NC(=O)/C=C/CN4CC[C@H]4C(C)(C)O)c(F)c3)n3cccc(c23)-c2c(C(F)(F)F)cc3c(ncn3C)c21 (single isomer, unassigned) [Example 180]	49.3 nM	12.7 nM	–
Cc1cc2c(nc(C)n2C)c2c1-c1cccc3c(C(=O)c4cc(F)c(NC(=O)/C=C/CNCC(=O)N(C)C)c(F)c4)cn(c13)CCN2C [Example 94, (E)-N-(2,6-difluoro-4-(6,8,9,11-tetramethyl-8,11,12,13-tetrahydro-imidazo[4″,5″:5′,6′]-benzo[1′,2′:5,6][1,4]-diazocino[7,8,1-hi]indole-2-carbonyl)phenyl)-4-((2-(dimethylamino)-2-oxoethyl)amino)but-2-enamide]	–	73 nM	IC50 [1, 7]: 71.6 nM
CC1Cc2cc(C(=O)c3cc(F)c(NC(=O)/C=C/CNC4(C)COC4)c(F)c3)n3cccc(c23)-c2c(C(F)(F)F)cc3c(ncn3C)c2O1 (stereo not drawn) [Example 130, (E)-N-(4-(9,13-dimethyl-7-(trifluoromethyl)-13,14-dihydro-9H-imidazo[4″,5″:5′,6′]benzo[1′,2′:2,3]oxocino[4,5,6-hi]indolizine-2-carbonyl)-2,6-difluorophenyl)-4-((3-methyloxetan-3-yl)amino)but-2-enamide]	41.4 nM	82.8 nM	–
Cn1cnc2c3c(c(C(F)(F)F)cc21)-c1cccn2c(C(=O)c4cc(F)c(NC(=O)/C=C/CN5CC[C@H]5CF)c(F)c4)cc(c12)CCO3 [Example 175, (S,E)-N-(2,6-difluoro-4-(9-methyl-7-(trifluoro-methyl)-13,14-dihydro-9H-imidazo[4″,5″:5′,6′]-benzo[1′,2′:2,3]oxocino-[4,5,6-hi]indolizine-2-carbonyl)phenyl)-4-(2-(fluoromethyl)azetidin-1-yl)but-2-enamide]	90.4 nM	23.3 nM	–
Cn1cnc2c3c(c(C(F)(F)F)cc21)-c1cccn2c(C(=O)c4cc(F)c(NC(=O)/C=C/CN5CC6(COC6)C5)c(F)c4)cc(c12)CCO3 [Example 198, (E)-N-(2,6-difluoro-4-(9-methyl-7-(trifluorometh-yl)-13,14-dihydro-9H-imidazo[4″,5″:5′,6′]benzo-[1′,2′:2,3]oxocino[4,5,6-hi]indolizine-2-carbonyl)-phenyl)-4-(2-oxa-6-azaspiro[3.3]heptan-6-yl)but-2-enamide]	57.1 nM	21.4 nM	–
Cn1cnc2c3c(c(C(F)(F)F)cc21)-c1cccn2c(C(=O)c4cc(F)c(NC(=O)/C=C/CN5C6CCC5COC6)c(F)c4)cc(c12)CCO3 [Example 197]	11.7 nM	10.9 nM	–
CO[C@H]1CC[C@H](NC/C=C/C(=O)Nc2c(F)cc(C(=O)c3cn4c5c(cccc35)-c3c(Cl)cccc3OCCCC4)cc2F)CC1 [Example 3, (E)-N-(4-(12-chloro-4,5,6,7-tetrahydrobenzo[2,3][1,6]oxazecino[4,5,6-hi]indole-1-carbonyl)-2,6-difluorophenyl)-4-(((1,4r)-4-methoxycyclohexyl)amino)but-2-enamide]	–	–	IC50 [1, 6]: 2700 nM; IC50 (MIA PaCa-2 cells; [5]): 4400 nM
CC1Cc2cc(C(=O)c3cc(F)c(NC(=O)/C=C/CNC4(C)COC4)c(F)c3)n3cccc(c23)-c2c(C(F)(F)F)cc3c(ncn3C)c2O1 (single isomer, unassigned) [Example 130-1, (E)-N-(4-(9,13-dimethyl-7-(trifluoromethyl)-13,14-dihydro-9H-imidazo[4″,5″:5′,6′]benzo[1′,2′:2,3]oxocino[4,5,6-hi]indolizine-2-carbonyl)-2,6-difluorophenyl)-4-((3-methyloxetan-3-yl)amino)but-2-enamide]	26.3 nM	–	IC50 (MIA PaCa-2 cells; Table 3-1): 17.4 nM
Cn1cnc2c3c(c(C(F)(F)F)cc21)-c1cccn2c(C(=O)c4cc(F)c(NC(=O)/C=C/CN5[C@@H]6CC[C@H]5[C@H](O)C6)c(F)c4)cc(c12)CCO3 (racemic) [Example 173]	7.02 nM	10.6 nM	–
Cc1cc2c(ncn2C)c2c1-c1cccn3c(C(=O)c4cc(F)c(NC(=O)/C=C/CNC5(C)CC5)c(F)c4)cc(c13)CCN2C [Example 115, (E)-N-(2,6-difluoro-4-(7,9,12-trimethyl-9,12,13,14-tetrahydro-imidazo[4″,5″:5′,6′]benzo-[1′,2′:2,3]azocino[4,5,6-hi]indolizine-2-carbon-yl)phenyl)-4-((1-methyl-cyclopropyl)amino)but-2-enamide]	38.9 nM	61.3 nM	–
Cc1cc2c(nc(C)n2C)c2c1-c1cccc3c(C(=O)c4cc(F)c(NC(=O)/C=C/CNC56CCC(CC5)OC6)c(F)c4)cn(c13)CCN2C [Example 119, (E)-4-((2-oxabicyclo-[2.2.2]octan-4-yl)amino)-N-(2,6-difluoro-4-(6,8,9,11-tetramethyl-8,11,12,13-tetrahydro-imidazo[4″,5″:5′,6′]benzo-[1′,2′:5,6][1,4]diazocino-[7,8,1-hi]indole-2-carbon-yl)phenyl)but-2-enamide]	–	–	IC50 [1, 7]: 16.9 nM; IC50 (MIA PaCa-2 cells; Table 3-1): 9.39 nM
CO[C@H]1CC[C@H](NC/C=C/C(=O)Nc2c(F)cc(C(=O)c3cn4c5c(cccc35)-c3c(cc(N5CCCC5=O)cc3C(F)(F)F)OCC4)cc2F)CC1 (single isomer, unassigned) [Example 5-2, (E)-N-(2,6-difluoro-4-(8-(2-oxopyrrolidin-1-yl)-10-(trifluoromethyl)-4,5-dihydrobenzo[7,8][1.4]oxazocino[6,5,4-hi]indole-1-carbonyl)phenyl)-4-(((1r,4t)-4-methoxycyclohexyl)amino)but-2-enamide]	–	–	IC50 [1, 6]: > 6700 nM; IC50 (MIA PaCa-2 cells; Table 3): 1800 nM
COc1cc2c(nc(C)n2C)c2c1-c1cccn3c(C(=O)c4cc(F)c(NC(=O)/C=C/CNC56CCC(CC5)OC6)c(F)c4)cc(c13)CCN2C [Example 121]	23 nM	26.4 nM	–
Cc1nc2c3c(c(C(F)(F)F)cc2n1C)-c1cccn2c(C(=O)c4cc(F)c(NC(=O)/C=C/CNC5(C)CCOC5)c(F)c4)cc(c12)CCO3 (stereo not drawn) [Example 41]	–	–	IC50 [1, 4]: 10 nM; IC50 (MIA PaCa-2 cells; [5]): 4 nM
COCc1nc2c3c(c(OC)cc2n1C)-c1cccn2c(C(=O)c4cc(F)c(NC(=O)/C=C/CNC5(C)COC5)c(F)c4)cc(c12)CCN3C (single isomer, unassigned) [Example 170, (E)-N-(2,6-difluoro-4-(7-methoxy-10-(methoxy-methyl)-9,12-dimethyl-9,12,13,14-tetrahydro-imidazo[4″,5″:5′,6′]benzo-[1′,2′:2,3]azocino[4,5,6-hi]indolizine-2-carbonyl)-phenyl)-4-((3-methyl-oxetan-3-yl)amino)but-2-enamide]	14.1 nM	47.7 nM	–
COC[C@@H]1CCN1C/C=C/C(=O)Nc1c(F)cc(C(=O)c2cc3c4c(cccn24)-c2c(C(F)(F)F)cc4c(ncn4C)c2OCC3)cc1F [Example 169, (S,E)-N-(2,6-difluoro-4-(9-methyl-7-(trifluoro-methyl)-13,14-dihydro-9H-imidazo[4″,5″:5′,6′]-benzo[1′,2′:2,3]oxocino-[4,5,6-hi]indolizine-2-carbonyl)phenyl)-4-(2-(methoxymethyl)azetidin-1-yl)but-2-enamide]	59.6 nM	15 nM	–
